Measurements taken from PMC5218480 (PLoS ONE, 2017).

Tested on: MV-4-11 cells
Test: Gene expression microarray analysis (Affymetrix PrimeView) and GSEA
Assay type: cell-based, human
Details: ProbeSet 11733176_x_at; LIST B

Nc1ncn([C@@H]2O[C@H](CO)[C@@H](O)[C@H]2O)c(=O)n1 [azacitidine]
RFU, ZNF507: 25.77 RFU
